Results on 1 molecule are retold here after US20260076948A1, “TREATMENT OF DIABETIC RETINOPATHY USING ENDOTHELIN RECEPTOR ANTAGONISTS” (Perfuse Therapeutics, Inc., priority 2019, published 2026).

Data set [1] has as its system Morrison's rat model of glaucoma (elevated IOP). The data set is described as follows: Morrison's rat model of glaucoma (RGC counts, PERG). It counts as in vivo, Brown Norway rats. The settings on record: topical eye drops 100 μg per dose, five days a week, four weeks. The text has this: Adult male and female retired breeder Brown Norway rats (approximate age groups of 8 to 11 months) were obtained from Envigo (Indianapolis, IN). Baseline IOP measurements and pattern electroretinogram (PERG) amplitudes were collected prior to the surgery for elevation of IOP (to ensure that the IOP and PERG amplitudes were in the expected range of values). IOP was elevated in one eye (left eye) of the rats, while the corresponding right eyes served as contralateral controls. The Morrison method to elevate IOP in rats was carried out by injection of 50 μL. of hypertonic saline through the episcleral veins to sclerose the trabecular meshwork. IOP was measured twice a week throughout the entire duration of the experiment. […] After detecting an elevation of IOP for two consecutive days, topical administration of eye drops (20 μL (100 μg) per dose of the tested compounds in the IOP elevated eye) was commenced and carried out for five days a week for a total of four weeks. In the 4th week of treatment, PERG analysis was carried out and rats were sacrificed by an overdose of pentobarbital (Fatal-Plus). Aqueous humor was collected from the rat eyes, frozen and shipped for analysis. Retinal flat mounts were prepared, immunostained with the RGC marker, Brn3a antibody and surviving RGCs were counted in two eccentricities (central and peripheral).
For this study, the Morrison's model was used to induce ocular hypertension in adult male retired breeder Brown Norway rats as previously described by Morrison et al., (Morrison J C, Moore C G, Deppmeier L M, Gold B G, Meshul C K, Johnson E C. A rat model of chronic pressure-induced optic nerve damage. Exp Eye Res. 1997; 64(1):85-96).
The immunostained retinal flat mounts were obtained to measure the retinal ganglion cell (RGC) counts. To obtain immunostained retinal flat mounts, the animals were euthanized after the treatments and then their eyes were enucleated. The eye cups were fixed overnight at 4° C. in 4% paraformaldehyde (PFA) and retinal flat mounts were prepared for collecting images. The retinal ganglion cell (RGC) counting was conducted using the images of immunostained retinal flat mounts. The images were uploaded to ImageJ, a photo editor designed for biology research (Rasband, 1997-2018) and the labeled retinal ganglion cells were counted manually in two eccentricities (central and peripheral).
Pattern ERG (PERG) was used to assess the RGC function. […] Briefly, PERG signals were acquired from a DTL-plus electrode placed on the lower part of the corneal surface and the PERG waves were analyzed using the EMWIN software (LKC). The difference between the amplitude of the major positive (P1) and negative (N2) waves were calculated to decipher the PERG amplitude.

Data set [2] in a line: Pharmacokinetics after intravitreal administration in the rabbit. The class given is in vivo, rabbits (Oryctolagus cuniculus). The settings on record: IVT, plasma and ocular tissues. The procedure: To determine the pharmacokinetic and safety properties of Edonentan following intravitreal administration in the rabbit, rabbits (Oryctolagus cuniculus) received bilateral intravitreal injections (20 μL injection volume/eye). Following the injections, animals were tranquilized with a ketamine/xylazine cocktail, and then the animals were euthanized with an overdose of sodium pentobarbital (Euthasol). Animals designated for the pharmacokinetic analysis were euthanized at different time points (e.g. 12, 16, 24, 36 and 48 hours). At least 1.0 mL of whole blood was drawn from the marginal ear vein or cardiac puncture (terminal bleed only) into K2EDTA tubes for plasma collection and processed for analytical analysis.
Immediately following euthanasia, the eyes was enucleated. Aqueous humor from both eyes was removed via syringe and snap frozen for analysis. Eyes were dissected when frozen to isolate various ocular tissues and minimize drug diffusion to adjacent tissues. Tissues from left and right eyes were collected in separate vials for analysis. List of tissues collected include plasma and aqueous humor, iris/ciliary body (ICB), retina, vitreous humor and RPE/choroid. The pharmacokinetic properties of intravitreally delivered Edonentan in rabbits are shown in FIG. 9A, FIG. 9B, FIG. 9C and FIG. 9D.

A further data set relates to ETA/ETB receptor. The settings on record: background statement; cited from earlier work.

In the case of `Cc1onc(NS(=O)(=O)c2ccccc2-c2ccc(-c3ncco3)cc2CN(C)C(=O)CC(C)(C)C)c1C` [Edonentan, N-[[2′-[[(4,5-dimethyl-3-isoxazolyl)amino]sulfonyl]-4-(2-oxazolyl)[1,1′-biphenyl]-2-yl]methyl]-N,3,3-trimethylbutanamide], in data set [1], the “Pattern electroretinogram (PERG) changes, RGC function” value is listed as “maintained RGC function” and the “Retinal ganglion cell (RGC) counts in the peripheral retina” value is “prevented RGC loss”. Further, in data set [2], the “t1/2 after intravitreal delivery” value is “longer t1/2”. Besides, in the data set on ETA/ETB receptor, the “Endothelin receptor antagonism, description in words” value is “highly selective and very potent endothelin A receptor antagonist”.
